According to PubChem BioAssay (NCI):
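These data come from cells grown in 96-well plates and exposed to compound for 48 hours at five concentrations. Here, GI50 denotes the concentration required for 50% inhibition of growth. At the TGI there is no net growth.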

How the values were obtained:
Experiment in all cases: NCI-60 cell line screen, 48 h
HCC-2998 colon = test system: HCC-2998 colon
PC-3 prostate = test system: PC-3 prostate
HCT-15 colon = test system: HCT-15 colon
OVCAR-4 ovarian = test system: OVCAR-4 ovarian
EKVX NSCLC = test system: EKVX NSCLC
CAKI-1 renal = test system: CAKI-1 renal
SK-MEL-5 melanoma = test system: SK-MEL-5 melanoma
DU-145 prostate = test system: DU-145 prostate
SK-OV-3 ovarian = test system: SK-OV-3 ovarian
786-0 renal = test system: 786-0 renal

Row | SMILES | GI50 (HCC-2998 colon) [µM] | TGI (HCC-2998 colon) [µM] | GI50 (PC-3 prostate) [µM] | TGI (PC-3 prostate) [µM] | GI50 (HCT-15 colon) [µM] | TGI (HCT-15 colon) [µM] | GI50 (OVCAR-4 ovarian) [µM] | TGI (OVCAR-4 ovarian) [µM] | GI50 (EKVX NSCLC) [µM] | TGI (EKVX NSCLC) [µM] | GI50 (CAKI-1 renal) [µM] | TGI (CAKI-1 renal) [µM] | GI50 (SK-MEL-5 melanoma) [µM] | TGI (SK-MEL-5 melanoma) [µM] | GI50 (DU-145 prostate) [µM] | TGI (DU-145 prostate) [µM] | GI50 (SK-OV-3 ovarian) [µM] | TGI (SK-OV-3 ovarian) [µM] | TGI (786-0 renal) [µM]
1 | CCN1CCN(C(=O)[C@]23CC[C@@H](C)[C@H](C)[C@@H]2C2=CC[C@@H]4[C@@]5(C)C/C(=C/c6cccnc6)C(=O)C(C)(C)[C@@H]5CC[C@@]4(C)[C@]2(C)CC3)CC1 | 1.55 | 3 | 1.49 | 3.85 | 1.66 | 3.26 | 2.57 | 7.36 | 2.17 | 7.32 | 2.12 | 11.8 | 1.75 | 3.14 | 2.08 | 4.21 | 2.7 | 9.2 | 
2 | O=S(=O)(c1cc(Cl)ccc1Cl)N1CCN(S(=O)(=O)c2cc(Cl)ccc2Cl)CC1 |  | > 100 |  | > 100 |  | > 100 |  |  |  |  |  | > 100 |  | > 100 |  | 29.6 |  |  | > 100
3 | Cc1cccc2c1C(=O)C1(Cc3ccccc3C1=O)C2 (stereo unspecified) |  | > 100 |  | > 100 |  | > 100 |  | > 100 |  | > 100 |  |  |  | > 100 |  | > 100 |  | > 100 | > 100
4 | O=[N+]([O-])C(/C(Cl)=C(/Cl)N1CCOCC1)=C1\NCCO1 |  | > 100 |  | > 100 |  | > 100 |  | > 100 |  | > 100 |  | > 100 |  |  |  | > 100 |  | > 100 | > 100
5 | CCN(CC)CCCCCCCCNc1c2ccc(Cl)cc2nc2ccc(OC)cc12 | 1.77 | 6.99 | 1.64 | 4.06 | 0.966 | 2.46 | 1.14 | 2.71 | 2.11 | 6.13 | 2.37 | 6.67 | 1.54 | 2.89 | 1.55 | 3.18 |  |  | 
6 | CCOC(=O)c1ccc(-c2cc(C)[nH]n2)[nH]1 |  |  |  | > 100 |  | > 100 |  | > 100 |  | > 100 |  | > 100 |  | > 100 |  | > 100 |  | > 100 | > 100
7 | C[C@]12CC[C@H]3[C@@H](CCC4=CC(=O)C=C[C@@]43O)[C@@H]1CCC2=O |  | > 100 |  | > 100 |  | > 100 |  |  |  | > 100 |  | > 100 |  | > 100 |  | > 100 |  |  | > 100
